Reference: patent publication US11965039B2, “Compstatin analogues and their medical uses” (priority 2018, dated 2024)
Positions of bridges follow the written chain, without caps; N, C: chain ends. Non-standard residues stand in square brackets, D forms with d. Residues, ends and D or L forms follow the SMILES beside them. Trp(1-Me) = Cn1cc(C[C@H](N)C(=O)O)c2ccccc21; 2Nal = N[C@@H](Cc1ccc2ccccc2c1)C(=O)O; NMeI = CC[C@H](C)[C@H](NC)C(=O)O; Sar = CNCC(=O)O

System: classical complement pathway
Assay: In vitro haemolysis assay (inhibition of classical complement pathway)
Format: cell-based, human
Conditions: human serum, sensitized sheep red blood cells; Table 3, given as upper bounds; read-out: IC50, inhibition of hemolysis
Method: The in vitro effect of the compounds of the present invention was assessed by measuring their inhibitory effect of the classical complement pathway in a haemolysis assay. Briefly, compounds of the present invention and reference compounds were dissolved in DMSO and diluted in Tris/Casein Assay Buffer (10 mM Tris, 145 mM NaCl, 0.5 mM MgCl2, 0.15 mM CaCl2), and 0.1% W/V Casein, adjusted to pH 7.4) as 9-point serial dilutions in a 96 well plate. Sensitized sheep red blood cells (RBC) coated with rabbit anti-sheep erythrocyte antiserum (Complement Technology, Inc., TX, USA) were washed in Tris/Casein Assay Buffer. […] from each well of diluted compound was added to a 96-well plate containing 50 μL diluted human serum (Complement Technology, Inc., TX, USA) and incubated for 15 minutes at room temperature. The serum dilution factor was optimized for every serum batch to obtain 70-90% of maximal haemolysis using the protocol. Then 50 μL sensitized sheep red blood cells were added to all wells (10^7 per well). After 30 minutes of incubation at 37 QC with gentle agitation, the reaction was stopped by addition of 50 μL Tris STOP Buffer per well (10 mM EDTA, 10 mM Tris, 145 mM NaCl adjusted to pH 7.4). The RBCs were then removed by centrifugation and the resulting supernatant measured for hemolysis by absorbance at 405 nm. The response was normalized relative to a positive and negative control (vehicle) to calculate the IC50 from the concentration response curve using the 4-parameter logistic (4PL) nonlinear model for curve fitting.

Row | SMILES | IC50
1 | CC[C@H](C)[C@H](NC(=O)[C@H](C)NC(=O)[C@H](CO)NC(=O)CNC(=O)[C@H](CCC(=O)O)NC(C)=O)C(=O)N[C@H]1CSSC[C@@H](C(=O)N[C@H](C(N)=O)[C@@H](C)O)NC(=O)[C@H](CCCNC(=N)N)NC(=O)[C@H](Cc2c[nH]cn2)NC(=O)[C@H](CCC(=O)O)NC(=O)CNC(=O)[C@H](Cc2c[nH]c3ccccc23)NC(=O)[C@H](CC(=O)O)NC(=O)[C@H](CCC(N)=O)NC(=O)[C@H](Cc2c[nH]c3ccccc23)NC(=O)[C@H]([C@@H](C)CC)NC1=O [Compound 29] (Ac-EGSAICIWQDWGEHRCT-NH2; disulfide 6-16) | < 100 nM
2 | CC[C@H](C)[C@@H]1NC(=O)[C@@H](NC(=O)[C@@H](NC(=O)[C@H](CCC(=O)O)NC(C)=O)[C@@H](C)CC)CSSC[C@@H](C(=O)N[C@H](C(=O)N[C@@H](CCC(=O)O)C(=O)NCC(=O)N[C@@H](CCC(=O)O)C(N)=O)[C@@H](C)O)NC(=O)[C@H](CCCNC(=N)N)NC(=O)[C@H](Cc2c[nH]cn2)NC(=O)[C@H](CCC(=O)O)NC(=O)CNC(=O)[C@H](Cc2c[nH]c3ccccc23)NC(=O)[C@H](CC(=O)O)NC(=O)[C@H](CCC(N)=O)NC(=O)[C@H](Cc2c[nH]c3ccccc23)NC1=O [Compound 34] (Ac-EICIWQDWGEHRCTEGE-NH2; disulfide 3-13) | < 250 nM
3 | CC[C@H](C)[C@@H]1NC(=O)[C@@H](NC(=O)[C@@H](NC(=O)[C@H](CCC(=O)O)NC(=O)CNC(=O)[C@H](CCC(=O)O)NC(C)=O)[C@@H](C)CC)CSSC[C@@H](C(=O)N[C@@H](CCC(=O)O)C(=O)NCC(=O)N[C@@H](CCC(=O)O)C(N)=O)NC(=O)[C@H](CCCNC(=N)N)NC(=O)[C@H](Cc2c[nH]cn2)NC(=O)[C@H](CCC(=O)O)NC(=O)CNC(=O)[C@H](Cc2c[nH]c3ccccc23)NC(=O)[C@H](CC(=O)O)NC(=O)[C@H](CCC(N)=O)NC(=O)[C@H](Cc2c[nH]c3ccccc23)NC1=O [Compound 35] (Ac-EGEICIWQDWGEHRCEGE-NH2; disulfide 5-15) | < 500 nM
4 | CC[C@H](C)[C@@H]1NC(=O)[C@@H](NC(=O)[C@@H](NC(=O)[C@H](CCCCN)NC(=O)[C@H](CCC(=O)O)NC(=O)[C@H](CCCCN)NC(C)=O)[C@@H](C)CC)CSSC[C@@H](C(=O)N[C@H](C(=O)N[C@@H](CCC(=O)O)C(=O)N[C@@H](CCCCN)C(=O)N[C@@H](CCC(=O)O)C(N)=O)[C@@H](C)O)NC(=O)[C@H](CCCNC(=N)N)NC(=O)[C@H](Cc2c[nH]cn2)NC(=O)[C@H](CCC(=O)O)NC(=O)CNC(=O)[C@H](Cc2c[nH]c3ccccc23)NC(=O)[C@H](CC(=O)O)NC(=O)[C@H](CCC(N)=O)NC(=O)[C@H](Cc2c[nH]c3ccccc23)NC1=O [Compound 37] (Ac-KEKICIWQDWGEHRCTEKE-NH2; disulfide 5-15) | < 250 nM
5 | CC[C@H](C)[C@H](NC(=O)CNC(=O)[C@H](CCCCN)NC(=O)[C@H](CCC(=O)O)NC(C)=O)C(=O)N[C@H]1CSSC[C@@H](C(=O)N[C@H](C(=O)N[C@@H](CCC(=O)O)C(=O)N[C@@H](CCCCN)C(=O)N2CCC[C@H]2C(N)=O)[C@@H](C)O)NC(=O)[C@H](CCCNC(=N)N)NC(=O)[C@H](Cc2c[nH]cn2)NC(=O)[C@H](CCC(=O)O)NC(=O)CNC(=O)[C@H](Cc2c[nH]c3ccccc23)NC(=O)[C@H](CC(=O)O)NC(=O)[C@H](CCC(N)=O)NC(=O)[C@H](Cc2c[nH]c3ccccc23)NC(=O)[C@H]([C@@H](C)CC)NC1=O [Compound 38] (Ac-EKGICIWQDWGEHRCTEKP-NH2; disulfide 5-15) | < 250 nM
6 | CC[C@H](C)[C@H](NC(C)=O)C(=O)N[C@H]1CSSC[C@@H](C(=O)N[C@H](C(=O)N[C@@H](CCC(=O)O)C(=O)NCC(=O)N[C@@H](CCCCN)C(N)=O)[C@@H](C)O)NC(=O)[C@H](CCCNC(=N)N)NC(=O)[C@H](Cc2c[nH]cn2)NC(=O)[C@H](CCC(=O)O)NC(=O)CNC(=O)[C@H](Cc2c[nH]c3ccccc23)NC(=O)[C@H](CC(=O)O)NC(=O)[C@H](CCC(N)=O)NC(=O)[C@H](Cc2c[nH]c3ccccc23)NC(=O)[C@H]([C@@H](C)CC)NC1=O [Compound 39] (Ac-ICIWQDWGEHRCTEGK-NH2; disulfide 2-12) | < 100 nM
7 | CC[C@H](C)[C@H](NC(=O)[C@H](C)NC(=O)[C@H](CO)NC(C)=O)C(=O)N[C@H]1CSSC[C@@H](C(=O)N[C@H](C(=O)N[C@@H](CCC(=O)O)C(=O)NCC(N)=O)[C@@H](C)O)NC(=O)[C@H](CCCNC(=N)N)NC(=O)[C@H](Cc2c[nH]cn2)NC(=O)[C@H](CCC(=O)O)NC(=O)CNC(=O)[C@H](Cc2c[nH]c3ccccc23)NC(=O)[C@H](CC(=O)O)NC(=O)[C@H](CCC(N)=O)NC(=O)[C@H](Cc2c[nH]c3ccccc23)NC(=O)[C@H]([C@@H](C)CC)NC1=O [Compound 42] (Ac-SAICIWQDWGEHRCTEG-NH2; disulfide 4-14) | < 250 nM
8 | CC[C@H](C)[C@@H]1NC(=O)[C@@H](NC(=O)[C@H](Cc2ccccc2)NC(C)=O)CSSC[C@@H](C(=O)N[C@H](C(=O)NCC(=O)N[C@@H](C)C(=O)N[C@@H](CCC(=O)O)C(N)=O)[C@@H](C)O)NC(=O)[C@H](CCCNC(=N)N)NC(=O)[C@H](Cc2c[nH]cn2)NC(=O)[C@H](CCC(=O)O)NC(=O)CNC(=O)[C@H](Cc2c[nH]c3ccccc23)NC(=O)[C@H](CC(=O)O)NC(=O)[C@H](CCC(N)=O)NC(=O)[C@H](Cc2c[nH]c3ccccc23)NC1=O [Compound 43] (Ac-FCIWQDWGEHRCTGAE-NH2; disulfide 2-12) | < 100 nM
9 | CC[C@H](C)[C@H](NC(=O)[C@H](C)NC(=O)[C@H](CO)NC(=O)[C@H](CO)NC(=O)[C@H](CCC(=O)O)NC(C)=O)C(=O)N[C@H]1CSSC[C@@H](C(=O)N[C@H](C(N)=O)[C@@H](C)O)NC(=O)[C@H](CCCNC(=N)N)NC(=O)[C@H](Cc2c[nH]cn2)NC(=O)[C@H](C)NC(=O)CNC(=O)[C@H](Cc2c[nH]c3ccccc23)NC(=O)[C@H](CC(=O)O)NC(=O)[C@H](CCC(N)=O)NC(=O)[C@H](Cc2c[nH]c3ccccc23)NC(=O)[C@H]([C@@H](C)CC)NC1=O [Compound 46] (Ac-ESSAICIWQDWGAHRCT-NH2; disulfide 6-16) | < 100 nM
10 | CC[C@H](C)[C@H](NC(C)=O)C(=O)N[C@H]1CSSC[C@@H](C(=O)N[C@H](C(=O)NCC(=O)N[C@@H](C)C(=O)N[C@@H](CCC(=O)O)C(=O)N[C@@H](CO)C(N)=O)[C@@H](C)O)NC(=O)[C@H](CCCNC(=N)N)NC(=O)[C@H](Cc2c[nH]cn2)NC(=O)[C@H](C)NC(=O)CNC(=O)[C@H](Cc2c[nH]c3ccccc23)NC(=O)[C@H](CC(=O)O)NC(=O)[C@H](CCC(N)=O)NC(=O)[C@H](Cc2c[nH]c3ccccc23)NC(=O)[C@H]([C@@H](C)CC)NC1=O [Compound 47] (Ac-ICIWQDWGAHRCTGAES-NH2; disulfide 2-12) | < 100 nM
11 | CC[C@H](C)[C@H](NC(=O)[C@H](N)Cc1ccc(O)cc1)C(=O)N[C@H]1CSSC[C@@H](C(=O)N(C)[C@H](C(N)=O)[C@@H](C)CC)NC(=O)[C@H](CCCNC(=N)N)NC(=O)[C@H](Cc2c[nH]cn2)NC(=O)[C@H](C)NC(=O)CN(C)C(=O)[C@H](Cc2c[nH]c3ccccc23)NC(=O)[C@H](CC(=O)O)NC(=O)[C@H](CCC(N)=O)NC(=O)[C@H](Cc2cn(C)c3ccccc23)NC(=O)[C@H]([C@@H](C)CC)NC1=O [Compound 48, H-{d}YIC(1)I[1-Me-Trp]QDW[Sar]AHRC(1)[N-Me-Ile]-NH2] (H-[dY]ICI[Trp(1-Me)]QDW[Sar]AHRC[NMeI]-NH2; disulfide 3-13) | < 100 nM
12 | CC[C@H](C)[C@@H]1NC(=O)[C@@H](NC(=O)[C@H](Cc2ccccc2)NC(=O)[C@H](C)NC(=O)[C@H](CO)NC(=O)CNC(=O)[C@H](CCC(=O)O)NC(C)=O)CSSC[C@@H](C(=O)N[C@@H](CCC(=O)O)C(=O)NCC(=O)N[C@@H](CCC(=O)O)C(N)=O)NC(=O)[C@H](CCCNC(=N)N)NC(=O)[C@H](Cc2c[nH]cn2)NC(=O)[C@H](CCC(=O)O)NC(=O)CNC(=O)[C@H](Cc2c[nH]c3ccccc23)NC(=O)[C@H](CC(=O)O)NC(=O)[C@H](CCC(N)=O)NC(=O)[C@H](Cc2cn(C)c3ccccc23)NC1=O [Compound 58] (Ac-EGSAFCI[Trp(1-Me)]QDWGEHRCEGE-NH2; disulfide 6-16) | < 100 nM
13 | CC[C@H](C)[C@@H]1NC(=O)[C@@H](NC(=O)[C@H](Cc2ccc(O)cc2)NC(=O)[C@H](C)NC(=O)[C@H](CO)NC(=O)CNC(=O)[C@H](CCC(=O)O)NC(C)=O)CSSC[C@@H](C(=O)N[C@H](C(=O)N[C@@H](CCC(=O)O)C(N)=O)[C@@H](C)O)NC(=O)[C@H](CCCNC(=N)N)NC(=O)[C@H](Cc2c[nH]cn2)NC(=O)[C@H](CCC(=O)O)NC(=O)CNC(=O)[C@H](Cc2c[nH]c3ccccc23)NC(=O)[C@H](CC(=O)O)NC(=O)[C@H](CCC(N)=O)NC(=O)[C@H](Cc2cn(C)c3ccccc23)NC1=O [Compound 59] (Ac-EGSAYCI[Trp(1-Me)]QDWGEHRCTE-NH2; disulfide 6-16) | < 100 nM
14 | CC[C@H](C)[C@@H]1NC(=O)[C@@H](NC(=O)[C@H](Cc2ccccc2)NC(C)=O)CSSC[C@@H](C(=O)N[C@H](C(=O)NCC(=O)N[C@@H](C)C(=O)N[C@@H](CCC(=O)O)C(=O)N[C@@H](CO)C(N)=O)[C@@H](C)O)NC(=O)[C@H](CCCNC(=N)N)NC(=O)[C@H](Cc2c[nH]cn2)NC(=O)[C@H](CCC(=O)O)NC(=O)CNC(=O)[C@H](Cc2c[nH]c3ccccc23)NC(=O)[C@H](CC(=O)O)NC(=O)[C@H](CCC(N)=O)NC(=O)[C@H](Cc2ccc3ccccc3c2)NC1=O [Compound 64] (Ac-FCI[2Nal]QDWGEHRCTGAES-NH2; disulfide 2-12) | < 100 nM
